Laboratory results taken from US8680153B2, “Method for correcting a lipid imbalance in a subject” (The Royal Institution for the Advancement of …, priority 2005, dated 2014).

Tests used:
Format in all cases: in vivo
Cftr-KO mice = experiment: μCT of trabecular bone (femur), biweekly treatment for 4 weeks
Procedure: Fenretinide Diet Supplementation. Examples 2 to 6: fenretinide (Sigma-Aldrich, Oakville, ON) powder was resuspended in 95% ethanol and subsequently incorporated in the Peptamen liquid diet. It was protected from light and kept at 4° C. before being given to the mice (5 mg/kg per day per mouse). Mock-treated diets were prepared similarly by adding ethanol to the Peptamen diet but omitting the fenretinide supplementation. The diet was given every morning for 28 consecutive days with specific monitoring of the quantity consumed by the mice in each cage. Examples 7 to 12: fenretinide powder was kindly provided by Dr. Robert Smith (NIH; Bethesda, Md., USA). Fenretinide was resuspended in 95% ethanol to make a 2 μg/μL concentration. Approximately 40 μL of this preparation was incorporated into the Peptamen liquid diet (5 mg/kg per day per mouse). The prepared food containing fenretinide was then stored in the dark at 4° C. for no more than 3 hours prior to being administered to the mice. To ensure that the entire drug dose was consumed, the mice were given 10 mL of fenretinide-treated Peptamen, which represents ⅔ of the daily mouse food consumption, in the late afternoon. The remaining 5 mL of Peptamen (without fenretinide) was given the following morning. Mice were treated twice a week for 4 weeks. During the treatment period each mouse was kept in a separate cage (including WT mice) and was monitored to ensure that the entire amount of Peptamen containing the fenretinide or with out was consumed. The diet for the mock-treated control group was prepared and administered similarly to that described above, by adding the same volume of ethanol to the Peptamen diet but omitting the fenretinide supplementation.
μ-CT. Mice were sacrificed by CO2 and exsanguinated by cardiac puncture. Femurs, tibiae and vertebrae were extracted, stripped of soft tissue and fixed in 4% paraformaldehyde overnight. Micro Computed Tomography (μCT) was performed on the left femur after overnight fixation. The distal metaphysis was scanned with a Skyscan 1072 μCT instrument (Skyscan, Antwerp, Belgium). Image acquisition was performed at 100 kV and 98 μA, with a 0.9° rotation between frames. The two-dimensional images were used to generate three-dimensional reconstructions to obtain quantitative data using the 3D Creator software supplied with the instrument (ANT 3D Creator software, Skyscan, Antwerp, Belgium).
Histological analysis. Mice were given an intra-peritoneal injection of 30 mg/kg calcein at 7 days and 2 days prior to sacrifice to label actively mineralizing surfaces. After overnight fixation in 4% paraformaldehyde and rinsing in phosphate buffered saline (PBS), right femurs and tibiae were embedded in polymethylmethacrylate (MMA) or a mixture of 50% MMA and 50% glycolmethacrylate (GMA). Serial 4- to 6-μm sections were cut on a modified Leica RM 2155 rotary microtome (Leica Microsystems, Richmond Hill, Ontario, Canada). MMA-embedded tissues were stained with von Kossa and toluidine blue, while 4 μm MMA-GMA sections were stained with tartrate-resistant acidic phosphatase (TRAP) and alkaline phosphate (ALP) activity. Images were captured using a Leica DMR microscope (Leica Microsystems) equipped with a Retiga 1300 camera (Qimaging, Burnaby, British Columbia, Canada). The left femur and tibia and the lumbar vertebrae were decalcified with 4% EDTA for paraffin embedding after 14 days. Serial 5 μm sections were cut and stained with hematoxylin and esosin (H&E). Osteoblasts were defined as a single-nucleated, rod shaped cells and were identified along the surface of the trabecular lamellae. Osteoclasts were defined as multi-nucleated cells that are much larger then osteoblasts and display typical macrophage morphology.

alveolar cells = experiment: Alveolar (inflammatory) cells in bronchoalveolar lavage fluid of infected mice
Procedure: Mouse Lung Infection. Mice were anaesthetized with a combination of ketamine (7.5 mg/mL) and xylazine (0.5 mg/mL) administered intraperitoneally at a dose of 20 mL/kg of body weight. Once the mouse was successfully anaesthetized, the animal was installed under binoculars (Microscope M650, Wild Leitz, Willowdale, ON) in the vertical position and held on a restraining board by holding the animal by its upper incisor teeth (Guilbault, et al. (2005) supra). The tongue was then gently pulled to the side of the mouth and a 26-G gavage needle was inserted into the mouth and guided through the pharynx gently touching the vocal cords to see the lumen of the trachea; the needle was then introduced into the trachea to reach the lung for the bilateral injection of the 50 microliter inoculum. After inoculation, the animal regained righting reflex within an hour. A final dose of 1×10^6 P. aeruginosa was used for infection using wild-type and Cftr-KO mice. Mice were monitored 3 times daily; the maximum weight loss allowed was 15%. Mice were sacrificed by CO2 overdose.
Bronchoalveolar Lavage. Circulation was flushed by slow intracardiac infusion of divalent cation-free Hank's balanced salt solution (HBSS; INVITROGEN™, Mississauga, ON). The trachea was cannulated with a 22-gauge intravenous catheter placement unit (CRITIKON®, GE Medical Systems, Tampa, Fla.) connected to two 5 mL syringes via a 3-way stopcock with a rotating collar (Namic U.S.A., Glens Falls, N.Y.). The alveoli of infected mice were washed 3 times with 1.4 mL of divalent cation-free HBSS. The volume of bronchoalveolar lavage fluid recovered was approximately 1.2 mL. […] Cells were resuspended in 0.5 mL of Dulbecco's Modified Eagle Medium (DMEM; INVITROGEN™) supplemented with 10% fetal bovine serum (FBS; Hyclone, Logan, Utah), diluted in Turk's solution and counted using a hematocytometer. The proportions of macrophages, lymphocytes and PMN were calculated after counting approximately 300 alveolar cells on cytospin preparations stained with DIFF-QUICK® stain (American Scientific Products, McGaw Park, Ill.).

ceramide levels = experiment: Plasma ceramide levels, biweekly treatment for 4 weeks; details: Cftr-KO mice, 4 weeks of biweekly treatment, p<0.05
Procedure: Fenretinide Diet Supplementation. Examples 2 to 6: fenretinide (Sigma-Aldrich, Oakville, ON) powder was resuspended in 95% ethanol and subsequently incorporated in the Peptamen liquid diet. It was protected from light and kept at 4° C. before being given to the mice (5 mg/kg per day per mouse). Mock-treated diets were prepared similarly by adding ethanol to the Peptamen diet but omitting the fenretinide supplementation. The diet was given every morning for 28 consecutive days with specific monitoring of the quantity consumed by the mice in each cage. Examples 7 to 12: fenretinide powder was kindly provided by Dr. Robert Smith (NIH; Bethesda, Md., USA). Fenretinide was resuspended in 95% ethanol to make a 2 μg/μL concentration. Approximately 40 μL of this preparation was incorporated into the Peptamen liquid diet (5 mg/kg per day per mouse). […] During the treatment period each mouse was kept in a separate cage (including WT mice) and was monitored to ensure that the entire amount of Peptamen containing the fenretinide or with out was consumed. […]
Ceramide/Sphingolipids analysis. The concentration of ceramide in the (lung, liver, ileum, pancreas homogenates) and plasma from mice and humans were determined by ELISA^39;40 on separated lipids samples by thin layer chromatography, as described above. […]

[1] = Cftr-KO mice, left femur, 8 doses over 4 weeks

In the case of `CC1=C(/C=C/C(C)=C/C=C/C(C)=C/C(=O)Nc2ccc(O)cc2)C(C)(C)CCC1` [fenretinide, all-trans-N-(4-hydroxyphenyl) retinamide], the “Signs of osteoporosis in the trabecular bone (μCT)” value (Cftr-KO mice; Cftr-KO mice, biweekly treatment over four weeks (total 8 doses)) is reported as “completely eliminate any signs of osteoporosis”, the “Bone number (BN), increase vs Cftr-KO not treated” value (Cftr-KO mice; [1]) is reported as 2.4 fold and the “Bone volume (BV), increase vs Cftr-KO not treated” value (Cftr-KO mice; [1]) is reported as 3.1 fold. The “Bone volume/tissue volume (BV/TV), increase vs untreated Cftr-KO” value (Cftr-KO mice; [1]) was 2.7 fold, the “Structural model index (SMI), treated WT vs treated Cftr-KO” value (Cftr-KO mice; left femur, fenretinide-treated mice) was “no significant (p=0.320) difference” and the “Trabecular separation, treated WT vs treated Cftr-KO” value (Cftr-KO mice; left femur, fenretinide-treated mice, p=0.548) was “no longer a significant difference”. For the same molecule, the “Mean total number of alveolar cells in the lungs” value (alveolar cells; Cftr-KO mice, day 3 post-infection (p=0.530 vs mock-treated)) was 1.1×10^6±1.3×10^6, the “Effect on cells recruited into the lungs of infected mice vs mock-treated” value (alveolar cells; day 3 post-infection, wild-type and Cftr-KO, neutrophils, monocytes, lymphocytes) was “no effect” and the “Mean total number of alveolar cells in the lungs” value (alveolar cells; wild-type mice, day 3 post-infection (p=0.280 vs mock-treated)) was 1.2×10^6±1.0×10^6. The “Ceramide levels, increase vs untreated Cftr-KO” value (ceramide levels) was 5.9 fold.
